According to PubChem BioAssay (NCI):
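96-well plates; 48 h exposure; 5 concentrations. Endpoints by linear interpolation between flanking doses. Not reached: highest tested concentration assigned. GI50 marks 50% less growth. Definition used: TGI = concentration required for complete inhibition of growth.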

Columns and labels:
Experiment in all cases: inhibition of tumour cell growth, NCI panel, 48 h
CCRF-CEM leukemia = test system: CCRF-CEM leukemia
SK-OV-3 ovarian = test system: SK-OV-3 ovarian
UO-31 renal = test system: UO-31 renal
MCF7 breast = test system: MCF7 breast
786-0 renal = test system: 786-0 renal
HCT-116 colon = test system: HCT-116 colon
NCI-H460 lung = test system: NCI-H460 lung
U251 CNS = test system: U251 CNS
SW-620 colon = test system: SW-620 colon
SK-MEL-2 melanoma = test system: SK-MEL-2 melanoma
MDA-MB-468 breast = test system: MDA-MB-468 breast
MOLT-4 leukemia = test system: MOLT-4 leukemia
OVCAR-8 ovarian = test system: OVCAR-8 ovarian
MDA-MB-435 = test system: MDA-MB-435
M14 melanoma = test system: M14 melanoma
SF-295 CNS = test system: SF-295 CNS
HS 578T breast = test system: HS 578T breast
IGROV1 ovarian = test system: IGROV1 ovarian
OVCAR-4 ovarian = test system: OVCAR-4 ovarian
NCI/ADR-RES ovarian = test system: NCI/ADR-RES ovarian
OVCAR-3 ovarian = test system: OVCAR-3 ovarian
LOX IMVI melanoma = test system: LOX IMVI melanoma
T-47D breast = test system: T-47D breast
RPMI-8226 leukemia = test system: RPMI-8226 leukemia
UACC-257 melanoma = test system: UACC-257 melanoma
HOP-62 NSCLC = test system: HOP-62 NSCLC
SNB-19 CNS = test system: SNB-19 CNS
HOP-92 NSCLC = test system: HOP-92 NSCLC
HCT-15 colon = test system: HCT-15 colon
SN12C renal = test system: SN12C renal
DU-145 prostate = test system: DU-145 prostate
UACC-62 melanoma = test system: UACC-62 melanoma
OVCAR-5 ovarian = test system: OVCAR-5 ovarian
SK-MEL-5 melanoma = test system: SK-MEL-5 melanoma
TK-10 renal = test system: TK-10 renal
ACHN renal = test system: ACHN renal
EKVX NSCLC = test system: EKVX NSCLC
KM12 colon = test system: KM12 colon
CAKI-1 renal = test system: CAKI-1 renal
MDA-MB-231 breast = test system: MDA-MB-231 breast
K-562 leukemia = test system: K-562 leukemia
SNB-75 CNS = test system: SNB-75 CNS
HL-60(TB) leukemia = test system: HL-60(TB) leukemia
PC-3 prostate = test system: PC-3 prostate
SF-539 CNS = test system: SF-539 CNS
HT29 colon = test system: HT29 colon
SK-MEL-28 melanoma = test system: SK-MEL-28 melanoma
HCC-2998 colon = test system: HCC-2998 colon
NCI-H522 lung = test system: NCI-H522 lung
NCI-H23 lung = test system: NCI-H23 lung
NCI-H226 lung = test system: NCI-H226 lung
A549 NSCLC = test system: A549 NSCLC
RXF 393 renal = test system: RXF 393 renal
A498 renal = test system: A498 renal
BT-549 breast = test system: BT-549 breast
SF-268 CNS = test system: SF-268 CNS
MALME-3M melanoma = test system: MALME-3M melanoma
COLO 205 colon = test system: COLO 205 colon

`C=C1CCC2C3(C)COC(c4ccccc4)OC3CCC2(C)C1CC(Sc1ccccc1)C1=CCOC1=O` (stereo unspecified) was tested, and the GI50 (CCRF-CEM leukemia) was 2.35 µM, the TGI (CCRF-CEM leukemia) was 8.71 µM and the GI50 (SK-OV-3 ovarian) was over 100 µM. For the same compound, the TGI (SK-OV-3 ovarian) was over 100 µM, the GI50 (UO-31 renal) was 6.36 µM and the TGI (UO-31 renal) was over 100 µM. The GI50 (MCF7 breast) was 3.42 µM, the TGI (MCF7 breast) was over 100 µM and the GI50 (786-0 renal) was 14.4 µM. For the same compound, the TGI (786-0 renal) was 40.5 µM, the GI50 (HCT-116 colon) was 3.52 µM and the TGI (HCT-116 colon) was 15.5 µM. It also gave a GI50 (NCI-H460 lung) of 17.4 µM, a TGI (NCI-H460 lung) of over 100 µM and a GI50 (U251 CNS) of 9.9 µM. The TGI (U251 CNS) was 26.5 µM, the GI50 (SW-620 colon) was 3.31 µM and the TGI (SW-620 colon) was over 100 µM. The GI50 (SK-MEL-2 melanoma) was 6.22 µM, the TGI (SK-MEL-2 melanoma) was 21.9 µM and the GI50 (MDA-MB-468 breast) was 4.8 µM. The TGI (MDA-MB-468 breast) was 26.4 µM, the GI50 (MOLT-4 leukemia) was 2.97 µM and the TGI (MOLT-4 leukemia) was over 100 µM. It also gave a GI50 (OVCAR-8 ovarian) of 4.98 µM, a TGI (OVCAR-8 ovarian) of 29 µM and a GI50 (MDA-MB-435) of 7.09 µM. It also gave a TGI (MDA-MB-435) of 35.4 µM, a GI50 (M14 melanoma) of 9.87 µM and a TGI (M14 melanoma) of 35 µM. The GI50 (SF-295 CNS) was 21.3 µM, the TGI (SF-295 CNS) was over 100 µM and the GI50 (HS 578T breast) was 37 µM. It also gave a TGI (HS 578T breast) of over 100 µM, a GI50 (IGROV1 ovarian) of 17.3 µM and a TGI (IGROV1 ovarian) of over 100 µM. For the same compound, the GI50 (OVCAR-4 ovarian) was 25.5 µM, the TGI (OVCAR-4 ovarian) was over 100 µM and the GI50 (NCI/ADR-RES ovarian) was 4.78 µM. It also gave a TGI (NCI/ADR-RES ovarian) of 26.4 µM, a GI50 (OVCAR-3 ovarian) of 3.66 µM and a TGI (OVCAR-3 ovarian) of 13.1 µM. For the same compound, the GI50 (LOX IMVI melanoma) was 3.43 µM, the TGI (LOX IMVI melanoma) was 14.3 µM and the GI50 (T-47D breast) was 5.2 µM. It also gave a TGI (T-47D breast) of over 100 µM, a GI50 (RPMI-8226 leukemia) of 2.59 µM and a TGI (RPMI-8226 leukemia) of 7.84 µM. The GI50 (UACC-257 melanoma) was 33.6 µM, the TGI (UACC-257 melanoma) was over 100 µM and the GI50 (HOP-62 NSCLC) was 72.2 µM. For the same compound, the TGI (HOP-62 NSCLC) was over 100 µM, the GI50 (SNB-19 CNS) was 45.1 µM and the TGI (SNB-19 CNS) was over 100 µM. The GI50 (HOP-92 NSCLC) was 6.54 µM, the TGI (HOP-92 NSCLC) was 41.9 µM and the GI50 (HCT-15 colon) was 5.12 µM. The TGI (HCT-15 colon) was 45 µM, the GI50 (SN12C renal) was 10.4 µM and the TGI (SN12C renal) was over 100 µM. It also gave a GI50 (DU-145 prostate) of 18.5 µM, a TGI (DU-145 prostate) of over 100 µM and a GI50 (UACC-62 melanoma) of 10.3 µM. For the same compound, the TGI (UACC-62 melanoma) was 27.7 µM, the GI50 (OVCAR-5 ovarian) was 25.9 µM and the TGI (OVCAR-5 ovarian) was over 100 µM. The GI50 (SK-MEL-5 melanoma) was 10.9 µM, the TGI (SK-MEL-5 melanoma) was 23.4 µM and the GI50 (TK-10 renal) was 76.1 µM. It also gave a TGI (TK-10 renal) of over 100 µM, a GI50 (ACHN renal) of 12.7 µM and a TGI (ACHN renal) of over 100 µM. The GI50 (EKVX NSCLC) was 5.77 µM, the TGI (EKVX NSCLC) was 95.5 µM and the GI50 (KM12 colon) was 11.7 µM. It also gave a TGI (KM12 colon) of over 100 µM, a GI50 (CAKI-1 renal) of 18.6 µM and a TGI (CAKI-1 renal) of over 100 µM. The GI50 (MDA-MB-231 breast) was 13.7 µM, the TGI (MDA-MB-231 breast) was 49 µM and the GI50 (K-562 leukemia) was 3.88 µM. It also gave a TGI (K-562 leukemia) of over 100 µM, a GI50 (SNB-75 CNS) of 1.71 µM and a TGI (SNB-75 CNS) of over 100 µM. The GI50 (HL-60(TB) leukemia) was 2.66 µM, the TGI (HL-60(TB) leukemia) was 8.66 µM and the GI50 (PC-3 prostate) was 5.88 µM. For the same compound, the TGI (PC-3 prostate) was over 100 µM, the GI50 (SF-539 CNS) was 6.82 µM and the TGI (SF-539 CNS) was 20.8 µM. For the same compound, the GI50 (HT29 colon) was 5.8 µM, the TGI (HT29 colon) was 39.7 µM and the GI50 (SK-MEL-28 melanoma) was 27.2 µM. It also gave a TGI (SK-MEL-28 melanoma) of over 100 µM, a GI50 (HCC-2998 colon) of 22.3 µM and a TGI (HCC-2998 colon) of over 100 µM. For the same compound, the GI50 (NCI-H522 lung) was 10.4 µM, the TGI (NCI-H522 lung) was 22.8 µM and the GI50 (NCI-H23 lung) was 25.7 µM. It also gave a TGI (NCI-H23 lung) of over 100 µM, a GI50 (NCI-H226 lung) of 6.32 µM and a TGI (NCI-H226 lung) of 42.4 µM. It also gave a GI50 (A549 NSCLC) of 13.1 µM, a TGI (A549 NSCLC) of over 100 µM and a GI50 (RXF 393 renal) of 6.61 µM. For the same compound, the TGI (RXF 393 renal) was 43 µM, the GI50 (A498 renal) was over 100 µM and the TGI (A498 renal) was over 100 µM. The GI50 (BT-549 breast) was 2.17 µM, the TGI (BT-549 breast) was 9.12 µM and the GI50 (SF-268 CNS) was 48.6 µM. For the same compound, the TGI (SF-268 CNS) was over 100 µM, the GI50 (MALME-3M melanoma) was 27.9 µM and the TGI (MALME-3M melanoma) was over 100 µM. The GI50 (COLO 205 colon) was 20.3 µM and the TGI (COLO 205 colon) was 46.8 µM.
